Patent US20110263693A1, “CELASTROL, GEDUNIN, AND DERIVATIVES THEREOF AS HSP90 INHIBITORS” (DANA-FARBER CANCER INSTITUTE, INC., priority 2006, published 2011)

Key:
[1] = tested on: LNCaP prostate cancer cell; experiment: Apoptosis induction in LNCaP cells; type: cell-based; conditions: at higher concentrations
Description: (§1) We also addressed whether celastrol and gedunin activity results in decreased cell growth consistent with inhibition of AR and other HSP90 clients. […] Below this concentration, an intermediate viability inhibition is seen.

AR = experiment: Western blot of AR protein level; type: cell-based; conditions: for concentration at and above which AR levels are decreased / concentration giving almost complete ablation of AR levels: LNCaP cells, 24 hr
Experimental: We first asked whether celastrol and gedunin decrease the levels of AR itself. […] Celastrol decreased AR levels in LNCaP cells at 0.5 μM and above, while gedunin decreases their levels at 10 μM and above. […] These concentration-dependent effects on AR are consistent with the observed inhibitory effects on AR-mediated signaling.

LNCaP cells [2] = experiment: Adherent cell growth by luminescent assay of ATP level (CellTiterGlo); type: cell-based; conditions: for LNCaP cell viability at higher concentrations: in the presence of androgen, above EC50 of androgen signaling inhibition; for adherent growth of androgen-stimulated LNCaP cells: luminescent assay of ATP levels
Experimental: (§2) To investigate the cellular consequences of celastrol- and gedunin-mediated inhibition, we assessed whether celastrol and gedunin activity results in decreased cell growth, consistent with AR inhibition. […] Second, the compounds' effects on anchorage-independent growth of LNCaP cells was assayed in soft agar (FIG. 6D).
(§3) Adherent cell growth was measured by luminescent assay of ATP level (CellTiterGlo, Promega). LNCaP cells were grown in charcoal-stripped media for 2 days prior to simultaneous treatment with 1 nM R1881 and the relevant compound. Synergy was assessed by analyzing the IC50 of one drug over a range of concentrations of the other drug and vice versa. The resulting concentration pairs were visualized by isobologram (Gessner, 1995). Anchorage independence was measured by soft agar assay (Hahn et al., 1999). Compounds were added to both agar layers. Colonies were scored after 3 weeks.
as §1

[3] = tested on: androgen signaling signature in LNCaP cells; experiment: GE-HTS androgen signaling signature assay / screen; conditions: LNCaP; for effect on the GE-HTS androgen signaling signature outside the screen: with and without 12 hours androgen pretreatment
BCR-ABL1 = experiment: Western blot of HSP90 client BCR-ABL1 level; type: cell-based, human; conditions: for protein level of BCR-ABL1: 24 hr, several cell lines, concentration-dependent
Experimental: To more broadly establish the effects of celastrol and gedunin on the HSP90 pathway, we tested whether these compounds decrease the protein levels of other HSP90 clients.
Celastrol (Calbiochem) and gedunin (Gaia Chemicals) were solubilized in DMSO. LNCaP.FGC cells (ATCC) were grown in RPMI 1640 (ATCC) with 10% FBS. Ba/F3 cells stably expressing human FLT3, EGFR, and BCR-ABL1 were grown in RPMI 1640, 10% FBS, and 2 ng/ml IL-3. SKBr3 cells were grown in a 1:1 DME:F12 plus 10% FBS.

LNCaP cells [4] = experiment: Soft agar assay of anchorage-independent growth; type: cell-based; conditions: for colony size in soft agar: LNCaP; for anchorage-independent growth of LNCaP cells (colony number): soft agar, celastrol 0.625 μM, compared with bicalutamide (casodex)
Experimental: as §2, §3

HSP90α = HSP90α (Homo sapiens, UniProt P07900); experiment: HSP90 ATP-binding assay (ATP-polyacrylamide pulldown from lysates of treated cells); type: cell-based; design: endogenous in cells; host or cells: LNCaP and K562; conditions: LNCaP and K562 cells treated 24 hr
Experimental: Given their inhibition of HSP90 clients, we next asked whether celastrol and gedunin affect HSP90 activity itself. To assess the effects on HSP90 activity within a cellular context, we treated LNCaP and K562 cells with celastrol or gedunin for 24 hr and subsequently tested the cellular HSP90's ATP-binding activity. ATP-binding activity was assayed by ATP-polyacrylamide pulldown of HSP90 from cell lysates, followed by western blot-based quantification (Bali et al., 2005). This assay identifies HSP90 inhibition, both direct and indirect, that alters HSP90 ATP-binding activity in cell lines (Bali et al., 2005, Soti et al., 2002). […] The decrease in ATP binding by HSP90 cannot be accounted for by changes in HSP90 level (FIG. 7E). Celastrol and gedunin therefore inhibit HSP90 activity itself in a cellular context, either directly or indirectly.
The ATP-binding assay was similar to that in previous reports (Bali et al., 2005, Soti et al., 2002). LNCaP and K562 cells were treated with celastrol and gedunin for 24 hr and then lysed in TNESV buffer (50 mM Tris, 2 mM EDTA, […], 1 mM activated sodium orthovanadate, 25 mM NaF, 1% Triton X-100 [pH 7.5]) for 30 min at 4° C. Lysates were spun for 30 min at 12,000 rpm at 4° C. […]

[5] = tested on: androgen signaling signature in LNCaP cells; experiment: Synergy with HSP90 inhibitors on the androgen signaling signature (isobologram); type: cell-based; conditions: 24 hr, isobologram analysis
Description: If celastrol and gedunin act on HSP90 function via a distinct mechanism from HSP90 ATP-binding site inhibition (Bagatell et al., 2005), they might act synergistically with existing HSP90 inhibitors. We therefore tested the combinatorial effects of these compounds with HSP90 inhibitors on HSP90 client signaling and viability. […] Celastrol and gedunin therefore act synergistically with existing modes of HSP90 ATP-binding site inhibition to inhibit HSP90 client signaling and viability in a cellular context, consistent with their inhibition of HSP90 via a distinct mechanism.
as §3

Row | Structure (SMILES) | apoptosis in LNCaP cells [1] | concentration at and above which AR levels are decreased (AR) [µM] | concentration giving almost complete ablation of AR levels (AR) [µM] | LNCaP cell viability at higher concentrations (LNCaP cells [2]) | adherent growth of androgen-stimulated LNCaP cells (LNCaP cells [2]) | effect on the GE-HTS androgen signaling signature outside the screen [3] | inhibition of the androgen signaling signature in the GE-HTS screen (strong / weak) ([3]; ~20 μM, 24 hr) | protein level of BCR-ABL1 (BCR-ABL1) | colony size in soft agar (LNCaP cells [4]) | anchorage-independent growth of LNCaP cells (colony number) (LNCaP cells [4]) | ATP-binding activity of HSP90α (HSP90α) | combined effect with geldanamycin and 17-AAG on the androgen signaling signature [5] | AR protein by immunoblotting (AR; gedunin-treated LNCaP cells) | sensitivity of BCR-ABL T315I point mutant to inhibition (BCR-ABL1; Ba/F3 cells, relative to non-mutant)
1 | CC1=C(O)C(=O)C=C2C1=CC=C1[C@@]2(C)CC[C@@]2(C)[C@@H]3C[C@](C)(C(=O)O)CC[C@]3(C)CC[C@]12C [celastrol] | induce apoptosis | ≥ 0.5 | 1 | markedly decrease LNCaP prostate cancer cell viability | inhibit adherent and anchorage-independent growth | inhibit the GE-HTS androgen signaling signature in a concentration-dependent manner | strong inhibition | lowered the protein levels | inhibited colony size | inhibited anchorage-independent growth to a similar degree as the AR competitive antagonist bicalutamide (casodex) | inhibited the ATP-binding activity | mild synergy | – | –
2 | CC(=O)O[C@@H]1C[C@H]2C(C)(C)C(=O)C=C[C@]2(C)[C@H]2CC[C@@]3(C)[C@H](c4ccoc4)OC(=O)[C@H]4O[C@]43[C@@]21C [gedunin] | induce apoptosis | ≥ 10 | 20 | markedly decrease LNCaP prostate cancer cell viability | inhibit adherent and anchorage-independent growth | inhibit the GE-HTS androgen signaling signature in a concentration-dependent manner | – | lowered the protein levels | inhibited colony size | inhibited anchorage-independent growth to a similar degree as the AR competitive antagonist bicalutamide (casodex) | inhibited the ATP-binding activity | mild synergy | nearly entirely eliminated | increased sensitivity
